pIC50: −log10 of the molar value.
How the values were obtained:
mGAT4 = target: T1, mGAT4 (Mus musculus, UniProt P31650); assay: [^3H]GABA uptake assay, HEK293 cells expressing mGAT4; assay type: cell-based; conditions: for pIC50: [^3H]GABA uptake, pIC50±SEM; for remaining activity at 100 µM: HEK293
T1 construct: expressed in transfected cells; host or cells: HEK293
T1 sequence (P31650 1-627): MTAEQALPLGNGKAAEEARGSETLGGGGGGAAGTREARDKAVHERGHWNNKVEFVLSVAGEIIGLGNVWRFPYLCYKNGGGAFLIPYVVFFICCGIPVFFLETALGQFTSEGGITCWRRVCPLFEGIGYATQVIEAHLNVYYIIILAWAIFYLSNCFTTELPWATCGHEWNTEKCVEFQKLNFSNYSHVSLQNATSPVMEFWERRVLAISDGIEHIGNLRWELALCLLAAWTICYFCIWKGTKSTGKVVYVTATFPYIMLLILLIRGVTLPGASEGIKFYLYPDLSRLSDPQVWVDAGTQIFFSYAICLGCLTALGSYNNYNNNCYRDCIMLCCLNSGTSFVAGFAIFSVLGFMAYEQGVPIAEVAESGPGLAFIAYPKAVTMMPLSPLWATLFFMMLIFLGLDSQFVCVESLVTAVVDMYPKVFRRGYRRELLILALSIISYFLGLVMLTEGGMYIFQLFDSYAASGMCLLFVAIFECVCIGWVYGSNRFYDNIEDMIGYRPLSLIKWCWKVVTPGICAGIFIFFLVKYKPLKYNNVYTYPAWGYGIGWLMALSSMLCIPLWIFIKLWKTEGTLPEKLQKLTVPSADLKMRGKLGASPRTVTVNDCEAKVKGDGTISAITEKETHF
Experimental: (§1) For compounds with pIC50 ([^3H]GABA uptake assay) or pK i (MS Binding Assays) values close to or above 5.0, these experiments were repeated twice and SEM have been calculated.
(§2) [^3H]GABA uptake assays: The [^3H]GABA uptake assays were performed according to Kragler et al.33 Cells were grown in 150 cm^2 plates to a confluence of 70–90 % up to passage 25. After detachment the cells were centrifuged 5 min at 500×g, washed for three times in phosphate buffered saline and, finally, resuspended in Krebs buffer (2.5 mM CaCl2, 1.2 mM MgSO4, 1.2 mM KH2PO4, 4.7 mM KCl, 11 mM glucose, 25 mM Tris, 119 mM NaCl, pH 7.2). The uptake assays were performed with aliquots of the resulting cell suspension (about 100000–200000 cells per well) in a total volume of 250 μl in 96 well 2.2 mL deep well plates. The cells were equilibrated for 25 min in Krebs buffer in the presence of the test compound at 37 °C in a gently shaking water bath. […] After addition of 25 μl of a solution containing [^3H]GABA (2.22 TBq/mmol, ARC, St Louis, MO, USA) and unlabeled GABA in Krebs (final concentration 8 nM [^3H]GABA and 32 nM unlabeled GABA for mGAT1, mGAT3, mGAT4 and 20 nM [^3H]GABA and 20 nM unlabeled GABA for mGAT2) the cells were incubated for further 4 min (mGAT1, mGAT3, mGAT4) or 10 minutes (mGAT2), respectively. The incubation was stopped by filtration through Sartorius MGC micro glass fiber filters pre‐soaked for 1 h in 0.9 % NaCl by means of a Brandell MWXR‐96TI cell harvester (Brandell, Gaithersburg, MD, USA) under reduced pressure. The filters were rinsed two times with cold 0.9 % NaCl and subsequently transferred to 96 well sample plates (Perkin Elmer LAS, Boston, MA, USA). After addition of 200 μl Rotiszint Eco Plus (Roth, Karlsruhe, Germany) per well the radioactivity was determined in a microbeta liquid scintillation counter (Perkin Elmer LAS, Boston, MA, USA). Non‐specific uptake was determined in presence of 10 mM GABA for mGAT1, mGAT3 and mGAT4 or 100 mM GABA for mGAT2, respectively. The results are expressed as means±S.E.M. of at least three separate experiments, each carried out in triplicate.

mGAT3 = target: T2, mGAT3 (Mus musculus, UniProt P31649); assay: [^3H]GABA uptake assay, HEK293 cells expressing mGAT3; assay type: cell-based; conditions: for pIC50: [^3H]GABA uptake, pIC50±SEM; for remaining activity at 100 µM: HEK293, in presence of 100 μM compound
T2 construct: expressed in transfected cells; host or cells: HEK293
T2 sequence (P31649 1-602): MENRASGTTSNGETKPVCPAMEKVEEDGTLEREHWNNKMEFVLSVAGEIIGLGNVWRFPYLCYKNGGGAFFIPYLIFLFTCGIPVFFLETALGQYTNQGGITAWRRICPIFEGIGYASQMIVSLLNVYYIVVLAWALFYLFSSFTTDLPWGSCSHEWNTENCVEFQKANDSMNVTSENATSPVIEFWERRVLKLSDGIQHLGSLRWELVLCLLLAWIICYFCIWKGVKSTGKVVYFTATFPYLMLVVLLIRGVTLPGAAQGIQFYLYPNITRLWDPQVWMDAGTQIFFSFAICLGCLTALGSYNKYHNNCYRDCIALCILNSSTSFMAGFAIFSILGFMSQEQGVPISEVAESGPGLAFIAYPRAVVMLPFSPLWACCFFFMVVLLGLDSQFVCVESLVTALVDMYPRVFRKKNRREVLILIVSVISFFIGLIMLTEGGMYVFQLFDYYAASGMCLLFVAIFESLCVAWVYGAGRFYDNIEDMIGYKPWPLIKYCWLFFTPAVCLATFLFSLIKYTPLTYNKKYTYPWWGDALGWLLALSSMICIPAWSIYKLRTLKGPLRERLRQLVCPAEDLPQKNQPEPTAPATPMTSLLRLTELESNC
Experimental: as §1, §2

mGAT1 [1] = target: T3, mGAT1 (Mus musculus, UniProt P31648); assay: [^3H]GABA uptake assay, HEK293 cells expressing mGAT1; assay type: cell-based; conditions: for remaining activity at 100 µM: HEK293, in presence of 100 μM compound
T3 construct: expressed in transfected cells; host or cells: HEK293
Experimental: as §1, §2

mGAT2 = target: T4, mGAT2 (Mus musculus, UniProt P31651); assay: [^3H]GABA uptake assay, HEK293 cells expressing mGAT2; assay type: cell-based; conditions: for pIC50: [^3H]GABA uptake, pIC50±SEM; for remaining activity at 100 µM: HEK293, in presence of 100 μM compound
T4 construct: expressed in transfected cells; host or cells: HEK293
T4 sequence (P31651 1-614): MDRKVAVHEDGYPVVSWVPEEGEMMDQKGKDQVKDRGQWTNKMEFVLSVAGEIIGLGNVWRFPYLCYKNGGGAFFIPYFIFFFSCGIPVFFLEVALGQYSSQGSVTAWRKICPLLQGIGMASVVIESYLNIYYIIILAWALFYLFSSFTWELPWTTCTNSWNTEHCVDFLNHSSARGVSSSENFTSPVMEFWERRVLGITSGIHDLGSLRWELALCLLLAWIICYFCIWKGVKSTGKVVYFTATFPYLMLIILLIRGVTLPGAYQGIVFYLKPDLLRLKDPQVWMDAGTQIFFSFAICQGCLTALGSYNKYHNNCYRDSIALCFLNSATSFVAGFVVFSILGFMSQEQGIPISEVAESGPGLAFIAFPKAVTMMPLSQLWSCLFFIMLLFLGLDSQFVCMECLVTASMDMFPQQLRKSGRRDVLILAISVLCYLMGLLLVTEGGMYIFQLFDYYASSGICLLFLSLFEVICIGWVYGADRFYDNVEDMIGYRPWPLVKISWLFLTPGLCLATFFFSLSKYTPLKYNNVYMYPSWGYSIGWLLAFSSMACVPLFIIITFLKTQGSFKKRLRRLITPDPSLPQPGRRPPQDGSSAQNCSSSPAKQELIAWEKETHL
Experimental: as §1, §2

mGAT1 [2] = target: T3, mGAT1; assay: MS Binding Assay with NO711 as native MS marker; conditions: for remaining activity at 100 µM: in presence of 100 μM compound, read-out: remaining specific NO711 binding (mGAT1)
Experimental: as §1
MS Binding Assays: The MS Binding Assays were performed with mGAT1 membrane preparations obtained from a stably mGAT1 expressing HEK293 cell line and NO711 as unlabeled marker in competitive binding experiments as previously described in detail.34 In short, test compounds were investigated at 7 concentrations in presence of 10 nM NO 711 in competition experiments. Non specific binding was defined as binding remaining in the presence of 100 mM GABA. Incubation was terminated by transfer of 200 μL per well onto a 96‐well filter plate (Acroprep, glass fibre, 1.0 μm, 350 μL, Pall, Dreieich, Germany) with a 12 channel pipette. After rapid vacuum‐filtration the filters were washed with ice cold 0.9 % NaCl (5×150 μL) and dried at 50 °C for 60 min. Afterwards, the filters were eluted with 100 μL methanol containing [^2H10]NO711 (1.4 nM) as internal standard per well into a deep‐well plate by application of vacuum. This step was repeated twice resulting in a total elution volume of 300 μL. Finally, a volume of 130 μL ammonium formate buffer (10 mM, pH 7.0) was added per well and the generated samples analyzed by LC‐ESI‐MS/MS using a API 3200 as described in detail previously.40

pIC50 (mGAT4)	pIC50 (mGAT3)	pIC50 (mGAT1 [1]; [^3H]GABA uptake, pIC50±SEM)	pIC50 (mGAT2)	remaining activity at 100 µM (mGAT1 [2]) [%]	remaining activity at 100 µM (mGAT4; in presence of 100 μM compound) [%]	remaining activity at 100 µM (mGAT3) [%]	remaining activity at 100 µM (mGAT1 [1]) [%]	remaining activity at 100 µM (mGAT2) [%]	remaining [^3H]GABA uptake mGAT4 (mGAT4; in presence of 100 μM compound)	Ki (mGAT1 [2]; MS Binding Assay, NO711 marker, pKi±SEM, read-out: pK i mGAT1 (converted)) [µM]	Structure (SMILES)
4.24	4.71	4.39	4.88	77.2	–	–	–	–	–	–	CCOC(=O)C1CCCN(CCOC(c2ccc(OC)cc2)(c2ccc(OC)cc2)c2ccc3nccn3c2)C1 (racemic) [12 d, rac‐ Ethyl 1‐(2‐{imidazo[1,2‐a]pyridin‐6‐ylbis(4‐methoxyphenyl)methoxy}‐ethyl)piperidine‐3‐carboxylate]
–	–	–	–	93.8	94.3	95.9	75.7	73.2	–	–	CCOC(=O)C1CCCN(CCOC(c2ccc(OC)cc2)(c2ccc(OC)cc2)c2ccc(S(=O)(=O)N(C)C)cc2)C1 (racemic) [12 c, rac‐ Ethyl 1‐(2‐{[4‐(N,N‐dimethylsulfamoyl)phenyl]bis[4‐methoxyphenyl]‐methoxy}ethyl)piperidine‐3‐carboxylate]
4.23	4.45	–	–	75.3	–	–	50.4	49.3	–	–	CCOC(=O)C1CCCN(CCOC(c2ccc(CO)cc2)(c2ccc(OC)cc2)c2ccc(OC)cc2)C1 (racemic) [12 m, rac ‐Ethyl 1‐(2‐{[4‐(hydroxymethyl)phenyl]bis[4‐methoxyphenyl]methoxy}‐ethyl)piperidine‐3‐carboxylate]
–	4.90	–	4.57	85.4	55.9	–	55.5	–	–	–	CCOC(=O)C1CCCN(CCOC(c2ccc(C=O)cc2)(c2ccc(OC)cc2)c2ccc(OC)cc2)C1 (racemic) [12 a, rac‐ Ethyl 1‐{2‐[(4‐formylphenyl)bis(4‐methoxyphenyl)methoxy]ethyl}‐piperidine‐3‐carboxylate]
–	–	–	–	54.1	50	96	99.5	–	50,0%	–	COc1ccc(C(OCCN2CCCC(C(=O)O)C2)(c2ccc(CNc3ccc(C(=O)O)cc3)cc2)c2ccc(OC)cc2)cc1 (racemic) [5 t, rac‐ 1‐{2‐[(4‐{[(4‐Carboxyphenyl)amino]methyl}phenyl)bis(4‐methoxy‐phenyl)methoxy]ethyl}piperidine‐3‐carboxylic acid]
4.90	–	–	–	55	–	58.7	78.1	91.6	–	–	COc1ccc(C(OCCN2CCCC(C(=O)O)C2)(c2ccc(CO)cc2)c2ccc(OC)cc2)cc1 (racemic) [5 m, rac‐1‐(2‐{[4‐(Hydroxymethyl)phenyl]bis[4‐methoxyphenyl]methoxy}‐ethyl)piperidine‐3‐carboxylic acid]
5.07	4.31	–	–	–	–	–	74.8	82.9	–	39.8	COc1ccc(C(OCCN2CCCC(C(=O)O)C2)(c2ccc(C#N)cc2)c2ccc(OC)cc2)cc1 (racemic) [5 g, rac ‐1‐{2‐[(4‐Cyanophenyl)bis(4‐methoxyphenyl)methoxy]ethyl}piperidine‐3‐carboxylic acid]
–	–	–	–	74.8	76.1	79	84.6	87.3	–	–	CCOC(=O)c1ccc(C(OCCN2CCCC(C(=O)OCC)C2)(c2ccc(OC)cc2)c2ccc(OC)cc2)cc1 (racemic) [12 e, rac‐ Ethyl 1‐(2‐{[4‐(ethoxycarbonyl)phenyl]bis[4‐methoxyphenyl]‐methoxy}ethyl)piperidine‐3‐carboxylate]
4.13	4.33	–	–	86.5	–	–	48.5	51.5	–	–	COc1ccc(C(OCCN2CCCC(C(=O)O)C2)(c2ccc(CNCCCC(=O)O)cc2)c2ccc(OC)cc2)cc1 (racemic) [5 s, rac ‐1‐{2‐[(4‐{[(3‐Carboxypropyl)amino]methyl}phenyl)bis(4‐methoxy‐phenyl)methoxy]ethyl}piperidine‐3‐carboxylic acid]
5.42	4.51	–	–	89.4	–	–	67.1	72.7	–	–	COCc1ccc(C(OCCN2CCCC(C(=O)O)C2)(c2ccc(OC)cc2)c2ccc(OC)cc2)cc1 (racemic) [5 f, rac ‐1‐(2‐{[4‐(Methoxymethyl)phenyl]bis[4‐methoxyphenyl]methoxy}‐ethyl)piperidine‐3‐carboxylic acid]

Reference: article PMC7317212 (Chemmedchem, 2020)
